From publication PMC4676015, “Variant fatty acid-like molecules Conjugation, novel approaches for extending the stability of therapeutic peptides” (Scientific Reports, 2015)

Key:
[1] = molecular target: T1, GLP-1 receptor (GLP-1R) (Rattus norvegicus, UniProt P32301); assay: GLP-1 receptor binding assay (cellular ELISA)
T1 construct: endogenous in cells; host or cells: rat INS-1 cells
T1 sequence (P32301 22-463): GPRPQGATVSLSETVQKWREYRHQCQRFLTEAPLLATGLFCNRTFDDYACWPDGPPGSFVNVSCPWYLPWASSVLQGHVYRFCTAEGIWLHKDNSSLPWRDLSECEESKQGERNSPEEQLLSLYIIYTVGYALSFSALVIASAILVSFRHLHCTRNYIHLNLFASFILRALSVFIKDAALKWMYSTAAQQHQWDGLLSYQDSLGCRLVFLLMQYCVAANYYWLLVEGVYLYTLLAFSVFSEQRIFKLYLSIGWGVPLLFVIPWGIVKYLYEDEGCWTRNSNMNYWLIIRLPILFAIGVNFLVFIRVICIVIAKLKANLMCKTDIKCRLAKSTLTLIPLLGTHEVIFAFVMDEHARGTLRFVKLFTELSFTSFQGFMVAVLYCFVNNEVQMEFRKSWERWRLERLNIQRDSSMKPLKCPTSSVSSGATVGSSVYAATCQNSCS
Protocol: Cells were rinsed with PBS and fixed with 4% paraformaldehyde (Thermo Scientific) for 10 min at room temperature and quenched for 5 min with 2% glycine in PBS, pH 7.5. […] After a 2 h incubation at 37 °C in a final volume of 100 μl, the excess peptides were washed, and the cells were blocked with 5% BSA (BD Biosciences). […] Colorimetric changes were analyzed by reading the absorbance at 450 nm in a SpectraMax M5 (Molecular Device) microplate reader. The peptide concentration was plotted against UV absorbance, and the Kd was calculated using Origin 7.0 software.

[2] = molecular target: T2, DPP IV enzyme (Homo sapiens, UniProt P27487); assay: Stability against DPP IV proteolysis with or without HSA; type: in vitro ADME; details: DPP IV 0.1 mg/ml, peptide 1 mg/ml, 37 °C, GLP-1 (7–37) ELISA; for degradation in DPP IV proteolysis compared with wild-type GLP-1, within 24 h: 25 mM potassium phosphate, 25 mM KCl, 5 mM MgCl2, pH 7.0, 2% HSA; for detectability of full-length peptide at 24 h: pH 7.0, in the presence of human serum albumin (2%)
T2 construct: purchased Sigma-Aldrich
T2 sequence (P27487 whole entry, species assumed): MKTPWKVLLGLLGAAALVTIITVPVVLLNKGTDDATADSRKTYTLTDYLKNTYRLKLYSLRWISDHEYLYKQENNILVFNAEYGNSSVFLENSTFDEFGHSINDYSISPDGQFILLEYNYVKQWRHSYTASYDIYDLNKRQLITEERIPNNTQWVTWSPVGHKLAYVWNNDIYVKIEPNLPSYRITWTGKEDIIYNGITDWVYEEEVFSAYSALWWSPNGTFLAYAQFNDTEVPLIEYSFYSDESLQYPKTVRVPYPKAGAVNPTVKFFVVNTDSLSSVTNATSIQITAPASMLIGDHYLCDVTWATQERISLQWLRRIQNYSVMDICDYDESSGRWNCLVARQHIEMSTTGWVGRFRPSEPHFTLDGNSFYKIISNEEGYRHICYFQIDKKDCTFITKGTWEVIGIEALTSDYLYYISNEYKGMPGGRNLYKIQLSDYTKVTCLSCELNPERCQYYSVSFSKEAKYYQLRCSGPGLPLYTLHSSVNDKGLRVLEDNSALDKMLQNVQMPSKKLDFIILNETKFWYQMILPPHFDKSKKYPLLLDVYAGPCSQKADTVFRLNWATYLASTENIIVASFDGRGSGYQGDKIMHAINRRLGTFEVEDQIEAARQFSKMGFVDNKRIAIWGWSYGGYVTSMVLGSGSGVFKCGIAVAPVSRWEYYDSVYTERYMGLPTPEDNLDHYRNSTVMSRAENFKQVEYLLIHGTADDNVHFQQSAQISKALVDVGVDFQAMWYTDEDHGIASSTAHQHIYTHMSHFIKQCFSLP
Protocol: DPP IV enzyme (0.1 mg/ml) was dissolved in 25 mM potassium phosphate buffer containing 25 mM potassium chloride and 5 mM magnesium chloride, pH 7.0.

Kd [1] [nM]	degradation in DPP IV proteolysis compared with wild-type GLP-1, within 24 h [2]	detectability of full-length peptide at 24 h [2]	SMILES
13.7 ± 0.88	slower degradation rates	still detectable at 24 h	CCCCCCCCCCCCCCCC(=O)NCCCC[C@H](NC(=O)[C@@H](NC(=O)[C@H](CC(C)C)NC(=O)[C@H](Cc1c[nH]c2ccccc12)NC(=O)[C@H](C)NC(=O)[C@@H](NC(=O)[C@H](Cc1ccccc1)NC(=O)[C@H](CCC(=O)O)NC(=O)[C@H](CCCCN)NC(=O)[C@H](C)NC(=O)[C@H](C)NC(=O)[C@H](CCC(N)=O)NC(=O)CNC(=O)[C@H](CCC(=O)O)NC(=O)[C@H](CC(C)C)NC(=O)[C@H](Cc1ccc(O)cc1)NC(=O)[C@H](CO)NC(=O)[C@H](CO)NC(=O)[C@@H](NC(=O)[C@H](CC(=O)O)NC(=O)[C@H](CO)NC(=O)[C@@H](NC(=O)[C@H](Cc1ccccc1)NC(=O)[C@@H](NC(=O)CNC(=O)[C@H](CCC(=O)O)NC(=O)[C@H](C)NC(=O)[C@@H](N)Cc1c[nH]cn1)[C@@H](C)O)[C@@H](C)O)C(C)C)[C@@H](C)CC)C(C)C)C(=O)NCC(=O)N[C@@H](CCCNC(=N)N)C(=O)NCC(=O)O [compound 6]
97.4 ± 2.11	–	–	CCCCCCCCCCCCNC(=O)C[C@H](NC(=O)[C@H](CO)NC(=O)[C@@H](NC(=O)[C@H](Cc1ccccc1)NC(=O)[C@@H](NC(=O)CNC(=O)[C@H](CCC(=O)O)NC(=O)[C@H](C)NC(=O)[C@@H](N)Cc1c[nH]cn1)[C@@H](C)O)[C@@H](C)O)C(=O)N[C@H](C(=O)N[C@@H](CO)C(=O)N[C@@H](CO)C(=O)N[C@@H](Cc1ccc(O)cc1)C(=O)N[C@@H](CC(C)C)C(=O)N[C@@H](CCC(=O)O)C(=O)NCC(=O)N[C@@H](CCC(N)=O)C(=O)N[C@@H](C)C(=O)N[C@@H](C)C(=O)N[C@@H](CCCCN)C(=O)N[C@@H](CCC(=O)O)C(=O)N[C@@H](Cc1ccccc1)C(=O)N[C@H](C(=O)N[C@@H](C)C(=O)N[C@@H](Cc1c[nH]c2ccccc12)C(=O)N[C@@H](CC(C)C)C(=O)N[C@H](C(=O)N[C@@H](CCCCN)C(=O)NCC(=O)N[C@@H](CCCNC(=N)N)C(=O)NCC(=O)O)C(C)C)[C@@H](C)CC)C(C)C [compound 11]
84.6 ± 4.36	–	–	CCCCCCCCCCCCCCCCNC(=O)C[C@H](NC(=O)[C@H](CO)NC(=O)[C@@H](NC(=O)[C@H](Cc1ccccc1)NC(=O)[C@@H](NC(=O)CNC(=O)[C@H](CCC(=O)O)NC(=O)[C@H](C)NC(=O)[C@@H](N)Cc1c[nH]cn1)[C@@H](C)O)[C@@H](C)O)C(=O)N[C@H](C(=O)N[C@@H](CO)C(=O)N[C@@H](CO)C(=O)N[C@@H](Cc1ccc(O)cc1)C(=O)N[C@@H](CC(C)C)C(=O)N[C@@H](CCC(=O)O)C(=O)NCC(=O)N[C@@H](CCC(N)=O)C(=O)N[C@@H](C)C(=O)N[C@@H](C)C(=O)N[C@@H](CCCCN)C(=O)N[C@@H](CCC(=O)O)C(=O)N[C@@H](Cc1ccccc1)C(=O)N[C@H](C(=O)N[C@@H](C)C(=O)N[C@@H](Cc1c[nH]c2ccccc12)C(=O)N[C@@H](CC(C)C)C(=O)N[C@H](C(=O)N[C@@H](CCCCN)C(=O)NCC(=O)N[C@@H](CCCNC(=N)N)C(=O)NCC(=O)O)C(C)C)[C@@H](C)CC)C(C)C [compound 12]
18.7 ± 1.36	–	–	CCCCCCCCNC(=O)CC[C@H](NC(=O)[C@H](CC(C)C)NC(=O)[C@H](Cc1ccc(O)cc1)NC(=O)[C@H](CO)NC(=O)[C@H](CO)NC(=O)[C@@H](NC(=O)[C@H](CC(=O)O)NC(=O)[C@H](CO)NC(=O)[C@@H](NC(=O)[C@H](Cc1ccccc1)NC(=O)[C@@H](NC(=O)CNC(=O)[C@H](CCC(=O)O)NC(=O)[C@H](C)NC(=O)[C@@H](N)Cc1c[nH]cn1)[C@@H](C)O)[C@@H](C)O)C(C)C)C(=O)NCC(=O)N[C@@H](CCC(N)=O)C(=O)N[C@@H](C)C(=O)N[C@@H](C)C(=O)N[C@@H](CCCCN)C(=O)N[C@@H](CCC(=O)O)C(=O)N[C@@H](Cc1ccccc1)C(=O)N[C@H](C(=O)N[C@@H](C)C(=O)N[C@@H](Cc1c[nH]c2ccccc12)C(=O)N[C@@H](CC(C)C)C(=O)N[C@H](C(=O)N[C@@H](CCCCN)C(=O)NCC(=O)N[C@@H](CCCNC(=N)N)C(=O)NCC(=O)O)C(C)C)[C@@H](C)CC [compound 13]
18.4 ± 2.36	–	–	CCCCCCCCCCCCNC(=O)CC[C@H](NC(=O)[C@H](CC(C)C)NC(=O)[C@H](Cc1ccc(O)cc1)NC(=O)[C@H](CO)NC(=O)[C@H](CO)NC(=O)[C@@H](NC(=O)[C@H](CC(=O)O)NC(=O)[C@H](CO)NC(=O)[C@@H](NC(=O)[C@H](Cc1ccccc1)NC(=O)[C@@H](NC(=O)CNC(=O)[C@H](CCC(=O)O)NC(=O)[C@H](C)NC(=O)[C@@H](N)Cc1c[nH]cn1)[C@@H](C)O)[C@@H](C)O)C(C)C)C(=O)NCC(=O)N[C@@H](CCC(N)=O)C(=O)N[C@@H](C)C(=O)N[C@@H](C)C(=O)N[C@@H](CCCCN)C(=O)N[C@@H](CCC(=O)O)C(=O)N[C@@H](Cc1ccccc1)C(=O)N[C@H](C(=O)N[C@@H](C)C(=O)N[C@@H](Cc1c[nH]c2ccccc12)C(=O)N[C@@H](CC(C)C)C(=O)N[C@H](C(=O)N[C@@H](CCCCN)C(=O)NCC(=O)N[C@@H](CCCNC(=N)N)C(=O)NCC(=O)O)C(C)C)[C@@H](C)CC [compound 14]
–	slower degradation rates	still detectable at 24 h	CCCCCCCCCCCCCCCCNC(=O)CC[C@H](NC(=O)[C@H](CC(C)C)NC(=O)[C@H](Cc1ccc(O)cc1)NC(=O)[C@H](CO)NC(=O)[C@H](CO)NC(=O)[C@@H](NC(=O)[C@H](CC(=O)O)NC(=O)[C@H](CO)NC(=O)[C@@H](NC(=O)[C@H](Cc1ccccc1)NC(=O)[C@@H](NC(=O)CNC(=O)[C@H](CCC(=O)O)NC(=O)[C@H](C)NC(=O)[C@@H](N)Cc1c[nH]cn1)[C@@H](C)O)[C@@H](C)O)C(C)C)C(=O)NCC(=O)N[C@@H](CCC(N)=O)C(=O)N[C@@H](C)C(=O)N[C@@H](C)C(=O)N[C@@H](CCCCN)C(=O)N[C@@H](CCC(=O)O)C(=O)N[C@@H](Cc1ccccc1)C(=O)N[C@H](C(=O)N[C@@H](C)C(=O)N[C@@H](Cc1c[nH]c2ccccc12)C(=O)N[C@@H](CC(C)C)C(=O)N[C@H](C(=O)N[C@@H](CCCCN)C(=O)NCC(=O)N[C@@H](CCCNC(=N)N)C(=O)NCC(=O)O)C(C)C)[C@@H](C)CC [compound 15]
22.3 ± 0.46	–	–	CCCCCCCCNC(=O)CC[C@H](NC(=O)[C@H](CCCCN)NC(=O)[C@H](C)NC(=O)[C@H](C)NC(=O)[C@H](CCC(N)=O)NC(=O)CNC(=O)[C@H](CCC(=O)O)NC(=O)[C@H](CC(C)C)NC(=O)[C@H](Cc1ccc(O)cc1)NC(=O)[C@H](CO)NC(=O)[C@H](CO)NC(=O)[C@@H](NC(=O)[C@H](CC(=O)O)NC(=O)[C@H](CO)NC(=O)[C@@H](NC(=O)[C@H](Cc1ccccc1)NC(=O)[C@@H](NC(=O)CNC(=O)[C@H](CCC(=O)O)NC(=O)[C@H](C)NC(=O)[C@@H](N)Cc1c[nH]cn1)[C@@H](C)O)[C@@H](C)O)C(C)C)C(=O)N[C@@H](Cc1ccccc1)C(=O)N[C@H](C(=O)N[C@@H](C)C(=O)N[C@@H](Cc1c[nH]c2ccccc12)C(=O)N[C@@H](CC(C)C)C(=O)N[C@H](C(=O)N[C@@H](CCCCN)C(=O)NCC(=O)N[C@@H](CCCNC(=N)N)C(=O)NCC(=O)O)C(C)C)[C@@H](C)CC [compound 16]
19.6 ± 2.14	–	–	CCCCCCCCNC(=O)C[C@H](NC(=O)[C@@H](NC(=O)[C@H](CC(C)C)NC(=O)[C@H](Cc1c[nH]c2ccccc12)NC(=O)[C@H](C)NC(=O)[C@@H](NC(=O)[C@H](Cc1ccccc1)NC(=O)[C@H](CCC(=O)O)NC(=O)[C@H](CCCCN)NC(=O)[C@H](C)NC(=O)[C@H](C)NC(=O)[C@H](CCC(N)=O)NC(=O)CNC(=O)[C@H](CCC(=O)O)NC(=O)[C@H](CC(C)C)NC(=O)[C@H](Cc1ccc(O)cc1)NC(=O)[C@H](CO)NC(=O)[C@H](CO)NC(=O)[C@@H](NC(=O)[C@H](CC(=O)O)NC(=O)[C@H](CO)NC(=O)[C@@H](NC(=O)[C@H](Cc1ccccc1)NC(=O)[C@@H](NC(=O)CNC(=O)[C@H](CCC(=O)O)NC(=O)[C@H](C)NC(=O)[C@@H](N)Cc1c[nH]cn1)[C@@H](C)O)[C@@H](C)O)C(C)C)[C@@H](C)CC)C(C)C)C(=O)NCC(=O)N[C@@H](CCCNC(=N)N)C(=O)NCC(=O)O [compound 19]
20.1 ± 1.97	–	–	CCCCCCCCCCCCNC(=O)C[C@H](NC(=O)[C@@H](NC(=O)[C@H](CC(C)C)NC(=O)[C@H](Cc1c[nH]c2ccccc12)NC(=O)[C@H](C)NC(=O)[C@@H](NC(=O)[C@H](Cc1ccccc1)NC(=O)[C@H](CCC(=O)O)NC(=O)[C@H](CCCCN)NC(=O)[C@H](C)NC(=O)[C@H](C)NC(=O)[C@H](CCC(N)=O)NC(=O)CNC(=O)[C@H](CCC(=O)O)NC(=O)[C@H](CC(C)C)NC(=O)[C@H](Cc1ccc(O)cc1)NC(=O)[C@H](CO)NC(=O)[C@H](CO)NC(=O)[C@@H](NC(=O)[C@H](CC(=O)O)NC(=O)[C@H](CO)NC(=O)[C@@H](NC(=O)[C@H](Cc1ccccc1)NC(=O)[C@@H](NC(=O)CNC(=O)[C@H](CCC(=O)O)NC(=O)[C@H](C)NC(=O)[C@@H](N)Cc1c[nH]cn1)[C@@H](C)O)[C@@H](C)O)C(C)C)[C@@H](C)CC)C(C)C)C(=O)NCC(=O)N[C@@H](CCCNC(=N)N)C(=O)NCC(=O)O [compound 20]
